Measured values: patent US10800767B2, “Thyroid hormone receptor beta agonist compounds” (Terns, Inc., priority 2018, dated 2020)

How the values were obtained:
[1] = molecular target: TR alpha-LBD (thyroid hormone receptor alpha) (Homo sapiens (Human), UniProt P10827); assay: LanthaScreen TR-FRET Thyroid Receptor alpha Coactivator Assay (agonist screening); type: biochemical; conditions: TR alpha-LBD 0.4 nM, 2 hour incubation, average of duplicate runs, read-out: EC50 THRα-FRET
Procedure: (§1) Example B1: Time-Resolved Fluorescence Resonance Energy Transfer (TR-FRET) Assay for Thyroid Hormone Receptor Agonist Screening
(§2) LanthaScreen™ TR-FRET Thyroid Receptor alpha Coactivator Assay kit (ThermoFisher) and LanthaScreen™ TR-FRET Thyroid Receptor beta Coactivator Assay kit (ThermoFisher) were used for agonist compound screening. Compounds in DMSO were diluted using ECHO Liquid Handler (Labcyte Inc.) into 384 plates in 10-point 3-fold series in duplicate (5 micro M final top concentration). Buffer C (ThermoFisher) was added to each well before the 4× mixture of fluorescein-SCR2-2 coactivator (200 nM final concentration), Terbium-labeled anti-GST antibody (2 nM final concentration), and TR alpha-LBD (0.4 nM final concentration) or TR beta-LBD (1.0 nM final concentration) was added. After 2 hour incubation at room temperature in dark, the TR-FRET signal was measured on an EnVision plate reader (PerkinElmer) with excitation at 340 nm and dual emission readout at 495 and 520 nm with the delay time of 100 micro second and the integration time of 200 micro second. The ratio of emission signal at 520 and at 495 was used to calculate EC50 using GraphPad Prism (GraphPad Software). In every batch of compound screening, T3 (L-3,3′,5-Triiodothyronine sodium salt, >95%) (Calbiochem) was used as reference compound. The EC50 of T3 measured were within 3-fold of the reference value provided by the assay kit manufacturer (ThermoFisher Scientific). The Z′ factors measured in every batch of screening using T3 as high percent effect (HPE) control and 0.5% DMSO as zero percent effect (ZPE) control were in the range of 0.5 to 0.8. Compounds' THR-beta selectivity values are derived from T3-selectivity normalized data.

[2] = molecular target: TR beta-LBD (thyroid hormone receptor beta) (Homo sapiens (Human), UniProt P10828); assay: LanthaScreen TR-FRET Thyroid Receptor beta Coactivator Assay (agonist screening); type: biochemical; conditions: for THRβ-Selectivity: THR beta over THR alpha, derived from T3-selectivity normalized data; for EC50: TR-FRET coactivator assay, TR beta-LBD 1.0 nM, 2 hour incubation, average of duplicate runs, read-out: EC50 THRβ-FRET
Procedure: as §1, §2

TR beta-LBD (thyroid hormone receptor beta), sequence (P10828 217-461): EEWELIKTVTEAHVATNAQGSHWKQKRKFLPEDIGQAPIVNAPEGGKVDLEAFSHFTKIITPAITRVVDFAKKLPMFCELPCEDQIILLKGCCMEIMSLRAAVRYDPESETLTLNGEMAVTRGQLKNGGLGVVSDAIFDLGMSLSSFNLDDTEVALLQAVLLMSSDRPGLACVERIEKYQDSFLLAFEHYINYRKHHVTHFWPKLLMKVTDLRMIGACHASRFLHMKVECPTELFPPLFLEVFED
TR alpha-LBD (thyroid hormone receptor alpha), sequence (P10827 other isoform, or with tags, fused parts or gaps del 1-162, other chains not shown): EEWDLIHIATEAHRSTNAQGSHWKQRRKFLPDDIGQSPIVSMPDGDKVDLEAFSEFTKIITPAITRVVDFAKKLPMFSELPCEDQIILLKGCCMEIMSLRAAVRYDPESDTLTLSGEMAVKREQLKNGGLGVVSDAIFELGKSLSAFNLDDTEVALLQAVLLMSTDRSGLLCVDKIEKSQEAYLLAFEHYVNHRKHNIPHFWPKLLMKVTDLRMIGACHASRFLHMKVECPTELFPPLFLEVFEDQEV

Structure (SMILES)	EC50 [1]	THRβ-Selectivity [2]	EC50 [2]
CC(C)c1cc(C(=O)c2c(Cl)cc(NCc3noc(=O)[nH]3)cc2Cl)nn(C)c1=O [Example 18, 3-(((3,5-dichloro-4-(5-isopropyl-1-methyl-6-oxo-1,6-dihydropyridazine-3-carbonyl)phenyl)amino)methyl)-1,2,4-oxadiazol-5(4H)-one]	550 nM	6.1	271 nM
CC(C)c1cc(S(=O)(=O)c2c(Cl)cc(NC(=O)c3noc(=O)[nH]3)cc2Cl)nn(C)c1=O [Example 20, N-(3,5-dichloro-4-((5-isopropyl-1-methyl-6-oxo-1,6-dihydropyridazin-3-yl)sulfonyl)phenyl)-5-oxo-4,5-dihydro-1,2,4-oxadiazole-3-carboxamide]	> 5000 nM		> 5000 nM
CC(C)c1cc(C(=O)c2c(Cl)cc(NC(=O)c3noc(=O)[nH]3)cc2Cl)nn(C)c1=O [Example 17, N-(3,5-dichloro-4-(5-isopropyl-1-methyl-6-oxo-1,6-dihydropyridazine-3-carbonyl)phenyl)-5-oxo-4,5-dihydro-1,2,4-oxadiazole-3-carboxamide]	> 5000 nM	>7.2	2110 nM
CC(C)c1cc(Oc2c(Cl)cc(NCc3noc(=O)[nH]3)cc2Cl)n[nH]c1=O [Example 5, 3-(((3,5-dichloro-4-((5-isopropyl-6-oxo-1,6-dihydropyridazin-3-yl)oxy)phenyl)amino)methyl)-1,2,4-oxadiazol-5(4H)-one]	469 nM	27.8	74.2 nM
CC(C)c1cc(Cc2c(Cl)cc(NC(=O)c3noc(=O)[nH]3)cc2Cl)n[nH]c1=O [Example 13, N-(3,5-dichloro-4-((5-isopropyl-6-oxo-1,6-dihydropyridazin-3-yl)methyl)phenyl)-5-oxo-4,5-dihydro-1,2,4-oxadiazole-3-carboxamide]	1630 nM	86.5	53.6 nM

The remaining lines, values ahead:

EC50 [1]	THRβ-Selectivity [2]	EC50 [2]	Structure (SMILES)
1760 nM	80.8	91.3 nM	C[C@H](O)c1cc(Oc2c(Cl)cc(NC(=O)c3noc(=O)[nH]3)cc2Cl)n[nH]c1=O [Example 29P2, (S)—N-(3,5-dichloro-4-((5-(1-hydroxyethyl)-6-oxo-1,6-dihydropyridazin-3-yl)oxy)phenyl)-5-oxo-4,5-dihydro-1,2,4-oxadiazole-3-carboxamide]
212 nM	15.5	34.5 nM	Cn1nc(Oc2c(Cl)cc(NC(=O)c3noc(=O)[nH]3)cc2Cl)cc(C(C)(C)O)c1=O [Example 37, N-(3,5-dichloro-4-((5-(2-hydroxypropan-2-yl)-1-methyl-6-oxo-1,6-dihydropyridazin-3-yl)oxy)phenyl)-5-oxo-4,5-dihydro-1,2,4-oxadiazole-3-carboxamide]
699 nM	44.6	58.1 nM	CC(C)c1cc(Oc2c(Cl)cc(NC(=O)c3noc(=O)[nH]3)c(F)c2Cl)nn(C)c1=O [Example 26, N-(3,5-dichloro-2-fluoro-4-((5-isopropyl-1-methyl-6-oxo-1,6-dihydropyridazin-3-yl)oxy)phenyl)-5-oxo-4,5-dihydro-1,2,4-oxadiazole-3-carboxamide]
4260 nM	67	286 nM	CC(C)(C)c1cc(Oc2c(Cl)cc(NC(=O)c3noc(=O)[nH]3)cc2Cl)n[nH]c1=O [Example 28, N-(4-((5-(tert-butyl)-6-oxo-1,6-dihydropyridazin-3-yl)oxy)-3,5-dichlorophenyl)-5-oxo-4,5-dihydro-1,2,4-oxadiazole-3-carboxamide]
